What all share (test): Heart Infusion Agar Dilution Method (MIC)
Common to all, as to assay type: cell-based
Background: Agar dilution tests growth on a series of plates holding different concentrations.

For assay [1], the system named is Staphylococcus aureus 209-P. The note with it: pH 7.2.
The test system of another assay is Escherichia coli NIHJC-2. The note with it: NIHJC2, pH 7.2.
A further assay concerns Escherichia coli Juhl. The following applies: pH 7.2.
The subject of assay [2] is Staphylococcus epidermidis. The note with it: pH 7.2.
In assay [3] the test system is Klebsiella pneumoniae Y-60. The note with it: Y60, pH 7.2.
A further assay concerns Serratia marcescens T-55. The following applies: T55, pH 7.2.
In another assay the test system is Proteus mirabilis 1287.
Assay [4] deals with Klebsiella pneumoniae 8045. The note with it: pH 7.2.
The test system of a further assay is Serratia marcescens T-26. The following applies: T26, pH 7.2.
The mark [5] stands for this setting: Staphylococcus aureus 209-P, Heart Infusion Agar Dilution Method, read-out: MIC.

In brackets after ≈: the same amount, converted by molar mass. Where two headings read alike, the source gives them in different places.

Usually MIC stands for the lowest concentration found to suppress growth. In the case of `Cc1nnc(SCC2=C(C(=O)O)N3C(=O)[C@@H](NC(=O)Cn4cnnn4)[C@H]3SC2)s1` [Cefazolin], the results for the MIC (in assay [1] (setting [5]); against Escherichia coli NIHJC-2; in the assay with Escherichia coli Juhl) were no more than 0.05 µg/mL, 1.56 µg/mL (≈ 3.43 µM) and 1.56 µg/mL (≈ 3.43 µM), respectively.

Regarding `CC1=C(C(=O)O)N2C(=O)[C@@H](NC(=O)[C@H](N)c3ccccc3)[C@H]2SC1` [Cephalexin], the MIC in assay [1] (Staphylococcus aureus, 209P) came out at 0.2 µg/mL (≈ 0.576 µM); in [2] it was 3.12 µg/mL (≈ 8.98 µM); with Escherichia coli NIHJC-2 it was 12.5 µg/mL (≈ 36 µM); in the assay with Escherichia coli Juhl, 12.5 µg/mL (≈ 36 µM); in assay [3], 50 µg/mL (≈ 144 µM); in the assay with Serratia marcescens T-55, 50 µg/mL (≈ 144 µM). The compound further came in with an MIC against Proteus mirabilis 1287 (Proteus mirabilis, 1287, pH 7.2) of 25 µg/mL (≈ 72 µM).

As for `N[C@@H](C(=O)N[C@@H]1C(=O)N2C(C(=O)O)=C(Cl)CC[C@H]12)c1ccccc1` [Reference Example 2, (6R, 7S) 7-(R)-2-phenylglycinamido3-chloro-1-azabicyclo[4,2,0]oct-2-en-8-on-2-carboxylic acid], the minimum inhibitory concentration (MIC) in assay [1] (setting [5]) is 0.1 µg/mL (≈ 0.286 µM); in assay [4] it was 0.2 µg/mL (≈ 0.572 µM); with Serratia marcescens T-26, greater than 100 µg/mL; in the assay on Proteus mirabilis 1287 (Proteus mirabilis 1287, Heart Infusion Agar Dilution Method, pH 7.2, read-out: MIC), 3.12 µg/mL (≈ 8.92 µM).
